≈ marks a conversion by molar mass, not a printed value.
Assays:
[1] = Capacity factor (k') by HPLC (lipophilic index); format: physicochemical; settings: n = 3, mean ± SD
Method: According to the method described in the literature, the capacity factor (k') of the prodrugs was determined using high-performance liquid chromatography (HPLC). Retention times of each prodrug and LZDO were measured and k' values were calculated from the following equation: k' = (t' − t0)/t0(1) where t0 is the retention time of the uracil and t' is the retention time of each compound. All experiments were conducted in triplicate.

[2] = Partition coefficient, n-octanol / 50 mM phosphate buffer pH 7.4; format: physicochemical; settings: 1-octanol/phosphate buffer (7.4) at 25 °C, n = 3, mean ± SD; for logP: n-octanol/50 mM phosphate buffer, pH 7.4
Method: Partitioning studies were performed with n-octanol and 50 mM phosphate buffer solution (pH 7.4) following standard procedures described in the literature. All experiments were conducted in triplicate, and the determination of LZDO was also carried out as a reference. Meanwhile, ChemBioDraw Ultra 12.0 was used to determine the calculated log p values as reference to the observed values.

[3] = Hydrolysis (chemical stability) in phosphate buffer pH 7.4; format: physicochemical; settings: buffer solution pH 7.4, 37 °C, n = 3, mean ± SD
Method: The chemical stabilities of the target products were analyzed by high-performance liquid chromatography (HPLC) and were calculated as the amount unchanged within 24 h in buffer solutions at pH 7.4.
Methanolic stock solutions of each compound were added to 10 mL of 50 mM phosphate buffer solution (pH 7.4). The resulting solution was placed in a constant shaker bath set at 37 °C and after 24 h, a 10 μL aliquot of reaction solution was taken and analyzed by HPLC [35]. All experiments were performed in triplicate.

[4] = Hydrolysis in 80% human plasma; format: in vitro ADME; settings: for half-life: human, 80% human plasma, pH 7.4, read-out: t1/2 (80% Human Plasma) (converted); for bioconversion to LZDO or monoester in human plasma: result in words
Method: (§1) For a rationally designed prodrug intended to prolong the half-life of the active moiety, the metabolic lability should be sufficient and continuous. Preliminary metabolic stability was assessed in human plasma and human liver microsomes The profile of disappearance of each prodrug followed a pseudo-first-order trend, and half-lives were calculated from the linear slopes of logarithmic plots of remaining prodrug over time.
A prodrug (100 μL, initial concentrations were 4.20–9.85 mM) in methanol was added to human plasma (1000 μL) diluted to 80% with 50 mM phosphate buffer solution (pH 7.4) and was placed in a constant shaker bath set. The resulting solution was subsequently incubated at 37 °C and at appropriate time intervals methanol (1 mL) containing caffeine as internal standard was added in order to deproteinize the serum. The sample was vortexed for 3 min, and then centrifuged for 5 min at 5000 g. 900 μL of clear supernatant was withdrawn and evaporated to remove the solvent. Before analysis by RP-HPLC, the samples were dissolved in methanol (200 μL), vortexed again for 5 min, and then centrifuged for 5 min at 12,000 g. All experiments were performed at least in triplicate.
(§2) Separation and quantitation of the releasing LZDO and the prodrugs were carried out using a HPLC procedure. The HPLC system was equipped with a Waters 2695 gradient pump, a Waters 2487 UV detector at 278 nm, and an Empower 2 data station. The analytical column for in vitro samples was a Boston Green ODS-AQ column (4.6 mm × 50 mm, 5 μm) and the injection volume was 10 μL. Gradient elution methods were performed with a flow rate at 1.0 mL/min on Boston Green ODS-AQ column maintained at 30 °C. The percentage of mobile phase consisting of methanol and water was varied to elute analytes (see Supplementary Material for details of the HPLC elution). The methods provided rapid analysis for quantifying LZDO, prodrug and internal standard simultaneously. When qualifying the releasing amount of LZDO, separate standard curves under specific analytic condition were prepared by spiking a known amount of LZDO and internal standard in blank matrix. Disappearance of each prodrug from in vitro samples was analyzed by taking the ratio of peak areas detected at sampling time to that at initial time. As for in vivo pharmacokinetic analysis, determinations only referred to LZDO and an Ultimate XB-C18 column (3.0 mm × 50 mm, 3 μm) with an injection volume of 2 μL was used. The flow rate on Ultimate XB-C18 column was 0.4 mL/min with a column temperature of 30 °C. The mobile phase consisted of methanol (A) and water (B). The initial mobile phase composition was 4% A/96% B and maintained for 8 min. After that the mobile phase composition was changed to 80% A/20% B over 4 min and held at that ratio for an additional 4 min. The mobile phase was returned to initial composition over 1 min and re-equilibrated for 3 min. For in vivo analytical samples, a separate standard curve was prepared using blank rat plasma and ranged from 0.39 to 50 μg/mL.

[5] = Metabolism in human liver microsomes; format: in vitro ADME; settings: for half-life: human, human liver microsomes, pH 7.4, read-out: t1/2 (Human Liver Microsomes) (converted); for bioconversion to LZDO or monoester in human liver microsomes: result in words
Method: as §1
To the human liver microsomes which were dissolved in 50 mM phosphate buffer solution (pH 7.4) to a concentration of 1 mg/mL, a prodrug (100 μL, initial concentrations were 4.20–9.85 mM) in methanol and NADPH (100 μL, 1 mM) also in 50 mM phosphate buffer solution (pH 7.4) were successively added to initiate the incubation. The solution was then incubated at 37 °C and the subsequent procedures of sample preparations were similar to those in Section 3.5. All experiments were performed at least in triplicate.
as §2

[6] = Aqueous solubility in 50 mM phosphate buffer pH 7.4; format: physicochemical; settings: for solubility at 24 h: thermodynamic from solid
Method: An excess of each prodrug was added to 5 mL of 50 mM phosphate buffer solution (pH 7.4), and shaken at 25 °C in a water bath to establish equilibration for 24 h. After the equilibration, the samples were filtered through a membrane filter (0.45 μm) and analyzed by HPLC. All experiments were conducted in triplicate.

[7] = prodrug disappearance, from pseudo-first-order rate constant
[8] = aqueous buffer, 50 mM phosphate buffer pH 7.4, 25 °C, 24 h, n = 3, mean ± SD

| Molecule | Capacity Factor [1] | Log P [2] | % Unchanged at 24 h (pH 7.4) [3] | % Max of LZDO Released (80% Human Plasma) ([4]; maximum percentage of liguzinediol released at 6 h incubation, 37 °C) | t1/2 (80% Human Plasma) [4, 7] | % Max of LZDO Released (Human Liver Microsomes) ([5]; maximum percentage of liguzinediol released at 6 h incubation, 37 °C, NADPH) | t1/2 (Human Liver Microsomes) [5, 7] | logP [2] | solubility at 24 h [6, 8] | half-life [4, 7] | half-life [5, 7] | melting point | bioconversion to LZDO or monoester in human plasma [4] | bioconversion to LZDO or monoester in human liver microsomes [5] | Solubility ([6]; 50 mM phosphate buffer pH 7.4, 25 °C, 24 h, n = 3, mean ± SD) | solubility at 24 h ([6]; phosphate buffer, 25 °C, pH 7.4, aqueous buffer, as restated in conclusions) |
| --- | --- | --- | --- | --- | --- | --- | --- | --- | --- | --- | --- | --- | --- | --- | --- | --- |
| 3,6-Dimethyl-5-hydroxy-2-octadecanoyloxymethylpyrazine [Compound M18] | 1.055 ± 0.061 | 3.38 ± 0.20 | 98.2 ± 0.6% | 15.6 ± 1.6% | 9.6 ± 1.1 h | 15.9 ± 1.2% | 9.5 ± 0.9 h |  |  |  |  |  |  |  |  |  |
| Cc1nc(COC(=O)C(C)(C)C)c(C)nc1COC(=O)C(C)(C)C [Compound D5, 3,6-Dimethyl-2,5-dipivaloyloxymethylpyrazine] | 0.364 ± 0.039 |  | 96.1 ± 0.2% |  |  |  |  | 2.5 ± 0.18 | 29.9 ± 1.36 µg/mL (≈ 0.0889 mM) | 3.4 ± 0.4 h | 3.2 ± 0.3 h | 80 to 82 °C |  |  |  |  |
| CCCCCCCCCC(=O)OCc1nc(C)c(COC(=O)CCCCCCCCC)nc1C [Compound D10, 2,5-Didecanoyloxymethyl-3,6-dimethylpyrazine] | 1.068 ± 0.057 |  | 98.7 ± 0.4% |  |  |  |  | 2.87 ± 0.16 |  | 4.2 ± 0.4 h | 4.1 ± 0.5 h | 46 to 47 °C |  |  |  |  |
| CCCCCCCCCCCC(=O)OCc1nc(C)c(COC(=O)CCCCCCCCCCC)nc1C [Compound D12, 2,5-Didodecanoyloxymethyl-3,6-dimethylpyrazine] | 1.640 ± 0.032 |  | 99.8 ± 0.5% |  |  |  |  | 3.77 ± 0.21 |  | 7.9 ± 1 h | 7.9 ± 0.9 h | 55 to 56 °C |  |  |  |  |
| CCCCCCCCCCCCCCCC(=O)OCc1nc(C)c(COC(=O)CCCCCCCCCCCCCCC)nc1C [Compound D16, 2,5-Dihexadecanoyloxymethyl-3,6-dimethylpyrazine] | 3.911 ± 0.042 | thoroughly partitioned into n-octanol | stable ^c |  |  |  |  |  |  |  |  | 74 to 75 °C | no bioconversion | no bioconversion |  |  |
| CCCCCCCCCCCCCCCCCC(=O)OCc1nc(C)c(COC(=O)CCCCCCCCCCCCCCCCC)nc1C [Compound D18, 3,6-Dimethyl-2,5-dioctadecanoyloxymethylpyrazine] | 6.134 ± 0.084 | thoroughly partitioned into n-octanol | stable ^c |  |  |  |  |  |  |  |  | 75 to 76 °C | no bioconversion | no bioconversion |  |  |
| Cc1nc(COC(=O)C(C)(C)C)c(C)nc1CO [Compound M5, 3,6-Dimethyl-5-hydroxymethyl-2-pivaloyloxymethylpyrazine] | 0.210 ± 0.020 |  | 98.9 ± 0.3% |  |  |  |  | 1.33 ± 0.1 |  | 2.6 ± 0.1 h | 5.1 ± 0.2 h | 66 to 67 °C |  |  | 8000 ± 350 µg/mL (≈ 31.7 mM) | 8000 µg/mL (≈ 31.7 mM) |
| CCCCCCCCCC(=O)OCc1nc(C)c(CO)nc1C [Compound M10, 2-Decanoyloxymethyl-3,6-dimethyl-5-hydroxymethylpyrazine] | 0.400 ± 0.015 |  | 98.9 ± 0.3% |  |  |  |  | 2.48 ± 0.04 | 8.89 ± 0.21 µg/mL (≈ 0.0276 mM) | 2.3 ± 0.2 h | 2.1 ± 0.6 h | 31 to 32 °C |  |  |  |  |
| CCCCCCCCCCCC(=O)OCc1nc(C)c(CO)nc1C [Compound M12, 3,6-Dimethyl-2-dodecanoyloxymethyl-5-hydroxymethylpyrazine] | 0.514 ± 0.012 |  | 99.7 ± 0.2% |  |  |  |  | 3.12 ± 0.15 | 2.23 ± 0.11 µg/mL (≈ 0.00636 mM) | 2.6 ± 0.5 h | 2.2 ± 0.1 h | 40 to 41 °C |  |  |  |  |
| CCCCCCCCCCCCCCCC(=O)OCc1nc(C)c(CO)nc1C [Compound M16, 3,6-Dimethyl-2-hexadecanoyloxymethyl-5-hydroxymethylpyrazine] | 0.834 ± 0.012 |  | 99.4 ± 0.4% |  |  |  |  | 3.25 ± 0.13 |  | 3.3 ± 0.6 h | 3.3 ± 0.7 h | 60 to 62 °C |  |  |  |  |
| Cc1nc(CO)c(C)nc1CO [Liguzinediol, 2,5-Dihydroxymethyl-3,6-dimethylpyrazine] | 0.100 ± 0.004 |  |  |  |  |  |  | -1.12 ± 0.11 | 224000 µg/mL (≈ 1330 mM) |  |  |  |  |  |  |  |
